# Test results reported in article PMC9105386, “Development and Characterization of Indole-Responsive Whole-Cell Biosensor Based on the Inducible Gene Expression System from Pseudomonas putida KT2440” (International Journal of Molecular Sciences, 2022).
# Target: T1, TrpI (PpTrpI/PPP_RS00425 inducible system) (Pseudomonas putida, UniProt Q88RP5)
# T1 sequence (Q88RP5 1-298): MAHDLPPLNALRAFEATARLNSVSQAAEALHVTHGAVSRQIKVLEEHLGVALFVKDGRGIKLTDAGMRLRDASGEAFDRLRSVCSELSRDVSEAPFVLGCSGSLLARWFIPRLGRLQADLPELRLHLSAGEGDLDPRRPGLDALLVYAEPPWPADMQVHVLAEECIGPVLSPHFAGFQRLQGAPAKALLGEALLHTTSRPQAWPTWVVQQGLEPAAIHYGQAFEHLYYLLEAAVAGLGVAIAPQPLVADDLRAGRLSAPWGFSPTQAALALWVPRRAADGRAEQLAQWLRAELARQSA
# Assay: RFP reporter induction in whole cells, Hill fit
# Format: cell-based
# Settings: read-out: Km
# Description: RFP reporter induction in whole cells, Hill fit on TrpI (PpTrpI/PPP_RS00425 inducible system)
compound,measurement,value
"c1ccc2[nH]ccc2c1 [compound 1, indole]",EC50,1350 µM
